[ ]: non-standard residue; d: D form.
B1: bFetuin: bovine Fetuin (Sigma-Aldrich, #F2379), positive control for precipitation inhibition (protein, UniProt Q58D62 19-387, looked up)
Fetuin-B: TSPPQPAARPSSLLSLDCNSSYVLDIANDILQDINRDRKDGYVLSLNRVSDAREHRQEAGLGSLFYFTLDVLETGCHVLSRTSWKNCEVRIFHESVYGQCKAIFYINKEKRIFYLPAYNCTLRPVSQSAIIMTCPDCPSTSPYDLSNPRFMETATESLAKYNSESPSKQYSLVKITKTSSQWVFGPAYFVEYLIKESPCVKSEGSSCALESPGSVPVGICHGSLGEPQGNQGKIISVTCSFFNSQAPTPRGENATVNQRPANPSKTEELQQQNTAPTNSPTKAVPKGSVQYLPDWDKKREGSQEKDPVETFPVQLDLTTNPQGESLDVSFLFQEPMEEKVVVLPFPSKEQRSAECPGPAQKGYPFILPS

Tests used:
[1] = In vitro calcium phosphate precipitation assay; type: biochemical; conditions: for Precipitation inhibition: absorption measurement before SEM processing
Procedure: To evaluate the inhibitory capacity of the peptide according to SEQ ID NO: 1, we utilized a well-established in vitro calcium phosphate precipitation assay (17-19) as described in example 2.
Calcium precipitation assays were performed essentially as described before with minor adaptations (19). 2.4 mM ionic calcium (0.1M stock) was added to a 50 mM Tris/HCL buffer (pH 7.4) in 1.5 ml Eppendorf tubes. Peptide or bFetuin were added and incubated for 15 minutes at room temperature. Subsequently, 1.6 mM phosphate buffer (0.1M stock) was added and the mixture was incubated for 120 minutes at 37° C.
Data were normalized to the first positive control (normalized to 100%) in each experiment. As an internal reference for precipitation inhibition, we used 1 mg/ml, 0.5 mg/ml and 0.25 mg/ml bovine Fetuin (bFetuin, Sigma-Aldrich, #F2379) in each experiment. After 2 hours, samples were transferred to cuvettes (1.0 ml reactions) and absorbance was measured at A620 in a plate reader with a plate reader (Biorad). Each condition consisted of three biological replicates.

[2] = Total calcium, phosphate and protein measurements in pellets of in vitro precipitates; type: biochemical; conditions: 24 hours; control 14%
Procedure: To test this, particles were allowed to form for 2 or 24 hours in the presence or absence (control) of bFetuin or the peptide according to SEQ ID NO: 1. and subsequently harvested by centrifugation, washed and dissolved in acid, followed by total calcium, phosphate and protein measurements in the pellet and the supernatant.
Quantification of deposited calcium was carried out using a calcium determination kit (Randox, London, United Kingdom) according to the manufacturer's instruction, after hydrolysis of mineral deposits in 0.1M HCl. Calcium measurements were normalized to protein content using micro DC Protein Assay (Termo Scientifc, Bleiswijk, the Netherlands). To be able to measure protein content, an equal amount of 0.1M NaOH was used to neutralize the acid and 0.1% SDS (final concentration) was added to lyse cells in the cellular calcification assays.
Quantification of deposited phosphate was carried out using a phosphate colorimetric assay (Sigma, MK030) according to manufacturer's instruction after solubilisation of precipitates in 0.1M HCL.

[3] = test system: Human articular chondrocytes (HACs); experiment: ATP-induced human articular chondrocyte calcification model; type: cell-based; conditions: 7 days, 1 mM ATP, 20 μM peptide, vs control with ATP
Procedure: (§1) FIG. 3: Inhibition of cellular calcification of human articular chondrocytes, vascular smooth muscle cells and bone marrow stromal cells by the peptide according to SEQ ID NO: 1. Representative phase-contrast microscopy images of in vivo cell assays are shown. • A) Human articular chondrocytes (HACs) were stimulated for 7 days with 1 mM ATP and with or without 20 μM of the peptide. Results were obtained from three chondrocyte donors with three biological replicates each. • B) Vascular smooth muscle cells (VSMC) were stimulated for 7 days with 4.5 mM ionic calcium in the presence or absence of 20 μM of peptide. Results were obtained from three VSMC donors with three biological replicates each. • C) BMSCs were differentiated for 21 days in osteogenic differentiation medium containing beta-glycerophosphate (BGP) in the pre- or absence of 2.1 μM of peptide. BMSC; one donor with four biological replicates was used. • Left panels: phase-contrast images were obtained at the final day of each experiment. […] Scale bars indicate 200 μm. • Right panels: quantification of total calcium precipitation per well measured with the Randox total calcium assay and normalized to total protein. […]
(§2) Quantification of deposited calcium was carried out using a calcium determination kit (Randox, London, United Kingdom) according to the manufacturer's instruction, after hydrolysis of mineral deposits in 0.1M HCl. […]

[4] = test system: Vascular smooth muscle cells (VSMC); experiment: Calcium-induced vascular smooth muscle cell calcification model; type: cell-based, human; conditions: 7 days, 4.5 mM ionic calcium, 20 μM peptide
Procedure: as §1, with “peptide.” for “peptide. Results were obtained from three VSMC donors with three biological replicates each. • C) BMSCs were differentiated for 21 days in osteogenic differentiation medium containing beta-glycerophosphate (BGP) in the pre- or absence of 2.1 μM of peptide. BMSC; one donor with four biological replicates was used. • Left panels: phase-contrast images were obtained at the final day of each experiment.”
as §2
Human primary smooth muscle cells (VSMCs) were derived from tissue explants from patients undergoing surgery. […] Success of the isolation was determined by immunofluorescence staining for positive expression of alpha-smooth muscle actin (αSMA), smooth muscle protein 22-alpha (SM22α), phosphorylated myosin light chain 2 (pMLC) and absence of S100 C Calcium Binding Protein 4 (S100A4). […]

[5] = test system: Bone marrow derived stromal cells (BMSCs); experiment: Beta-glycerophosphate-induced BMSC osteogenic differentiation model; type: cell-based, human; conditions: 21 days osteogenic differentiation medium with BGP, 2.1 μM peptide
Procedure: as §1, §2

[6] = test system: rat osteoarthritis model; experiment: Rat osteoarthritis model (medial meniscal tear, collateral ligament transection); type: in vivo, Lewis rats
Procedure: FIG. 4: Intra-articular injection of the peptide ameliorates cartilage histopathology and improves animal mobility in a rat osteoarthritis model. Osteoarthritis was induced by introducing a surgical tear of the medial meniscus and transection of the collateral ligament (N=40). Bi-weekly intra-articular injections of 50 μl peptide with a concentration of 20 μM or 50 μl vehicle (0.9% NaCl) were performed (N=20 per group). Necropsy was performed at day 28, followed by histological analyses according to the OARSI scoring system.
• A) Representative toluidine blue stained tissue sections from the best, average and worst histological appearance. Cartilage tissue is stained in dark blue. • B) The OARSI score was obtained by multiplying grade and stage of cartilage damage per animal by two blinded observers. Statistical comparison was done with a two-tailed t-test. *=p. value<0.05. • C) Gait analyses score at day 20 of the experiment. Four measurements per animal were performed and each dot represents the average of one animal in the graph. Statistical significance between groups was determined with a Mann-Whitney U test. *=p. value<0.05.
We also evaluated the effect of bi-weekly intra-articular injection of the peptide in a rat osteoarthritis model (FIG. 4). Osteoarthritis was induced with a surgical tear of the medial meniscus and transection of the collateral ligament (N=40). […]

Row | Molecule | Precipitation inhibition ([1]; 20 μM peptide, 2 hours) [%] | efficiency of inhibition of in vitro calcium phosphate precipitation, comparison ([1]; compared with bFetuin) | concentration range down to which activity remained ([1]; dilution series in steps of 10, 2 hours) | concentration able to statistically significantly inhibit precipitation compared to control ([1]; dilution series, 2 hours) [aM] | concentration not able to statistically significantly inhibit precipitation ([1]; dilution series, 2 hours) [aM] | phosphate content in pellet [2] [%] | inhibition of calcification [3] | inhibition of calcification [4] | inhibition of calcium precipitation [5] [%] | reduction of histopathological OA score (OARSI) ([6]; day 28 post-surgery, bi-weekly intra-articular 50 μl of 20 μM, vs vehicle) [%] | animals having a normal gait ([6]; gait analysis day 20, bi-weekly intra-articular 50 μl of 20 μM, vehicle 5/20) | Precipitation inhibition ([1]; 0.5 mg/ml bFetuin, 2 hours) [%] | inhibition of precipitation ([1]; 1 mg/ml (20.6 μM), positive control) | concentration at which the inhibitory effect is lost ([1]; dilution series, 2 hours, molar equivalent of μg/ml) [nM]
1 | peptide according to SEQ ID NO: 1: circular polypeptide of 30 D-amino acids LIYRQPNCDDPETEEAALVAIDYIAPHGPG, D-Leucine at position 1 linked to D-Glycine at position 30 (cyclo([dL][dI][dY][dR][dQ][dP][dN][dC][dD][dD][dP][dE][dT][dE][dE][dA][dA][dL][dV][dA][dI][dD][dY][dI][dA][dP][dH]G[dP]G); SMILES CC[C@@H](C)[C@H]1NC(=O)[C@@H](C)NC(=O)[C@@H](C(C)C)NC(=O)[C@@H](CC(C)C)NC(=O)[C@@H](C)NC(=O)[C@@H](C)NC(=O)[C@@H](CCC(=O)O)NC(=O)[C@@H](CCC(=O)O)NC(=O)[C@@H]([C@H](C)O)NC(=O)[C@@H](CCC(=O)O)NC(=O)[C@H]2CCCN2C(=O)[C@@H](CC(=O)O)NC(=O)[C@@H](CC(=O)O)NC(=O)[C@@H](CS)NC(=O)[C@@H](CC(N)=O)NC(=O)[C@H]2CCCN2C(=O)[C@@H](CCC(N)=O)NC(=O)[C@@H](CCCNC(=N)N)NC(=O)[C@@H](Cc2ccc(O)cc2)NC(=O)[C@@H]([C@H](C)CC)NC(=O)[C@@H](CC(C)C)NC(=O)CNC(=O)[C@H]2CCCN2C(=O)CNC(=O)[C@@H](Cc2c[nH]cn2)NC(=O)[C@H]2CCCN2C(=O)[C@@H](C)NC(=O)[C@@H]([C@H](C)CC)NC(=O)[C@@H](Cc2ccc(O)cc2)NC(=O)[C@@H](CC(=O)O)NC1=O; listed as Homo Sapiens) | ~50 | more efficiently than bFetuin | remained active until the attomolar concentration range | 20.6 | 2.6 | 9 | 22-33% | 58-61% | 81 | 38 | 16/20 |  |  | 
2 | B1 |  |  |  |  |  | 9 |  |  |  |  |  | ~50 | completely inhibit precipitation | 20.6 to 200.6

— patent publication US20240309066A1, “MEANS AND METHODS FOR THE TREATMENT OF CALCIUM CRYSTAL DEPOSITION DISEASES” (UNIVERSITEIT MAASTRICHT, priority 2021, published 2024)
